Test results from patent US8580268B2, “CpG oligonucleotide analogs containing hydrophobic T analogs with enhanced immunostimulatory activity” (Coley Pharmaceutical GmbH, priority 2006, dated 2013).
“Also recorded” adds a separate entry of the source. Strand notation (5' to 3'): a small letter for the sugar, then the base; units joined by * are phosphorothioate-linked, units joined directly phosphodiester-linked; [ ] holds rarer units or linkages, { } end groups; capitals alone tell only the bases. [5IU] = 5-iodo-2'-deoxyuridine (publication's JU); d = 2'-deoxy (DNA)

Key:
PBMC = assay: B-cell proliferation in CFSE-labeled human PBMC; format: cell-based; conditions: CFSE-labeled PBMC from three donors, 5 days, CD19 staining
Protocol: Next the activity of modified P-class class ODN (SEQ ID NO:58, 60-62, FIG. 29a) (SEQ ID NO:64 and 67, FIG. 29b) was compared to that of an unmodified B-class ODN (SEQ ID NO:55), an unmodified C-class ODN (SEQ ID NO:54), a negative control ODN (SEQ ID NO:53), an unmodified P-class ODN (SEQ ID NO:56), LPS, R-848, SEB, and a poly[I]:[C] ODN. CFSE-labeled PBMC from three donors were incubated with the ODN for 5 days and then stained with a CD19 antibody. The percentage of B cells with reduced CFSE staining was determined.

BALB/c mice [1] = assay: In vivo murine IFN-alpha induction after SC injection (ELISA); set-up: species or system mouse; conditions: bled at 3 hr post injection
Protocol: (§1) Female BALB/c mice (6-8 weeks of age) were purchased from Charles River Canada (Quebec, Canada) and housed in micro-isolators in the Animal Care Facility at Coley Pharmaceutical Group Canada. All studies were conducted in accordance with the Animal Care Committee of Coley Canada under the guidance of the Canadian Council on Animal Care. All animals were naïve to CpG ODNs.
In order to determine the effect of the modified P-class ODN in vivo, BALB/c mice (5 per group) were injected SC with differing doses of ODN. Animals were bled at 3 hr post injection and plasma tested for IFN-alpha by ELISA. The activity of modified P-class ODN (SEQ ID NO:58, 60-62, 64, and 67) was compared to that of a B-class negative control (SEQ ID NO:55) and a negative control (SEQ ID NO:26).

human TLR9 = biological target: T1, human TLR9 (Homo sapiens, UniProt Q9NR96); assay: TLR9 luciferase assay (NF-κB reporter) in hTLR9-LUC-293 cells; format: cell-based; conditions: 16 h, stated in words relative to the comparator ODN
T1 construct: expressed in transfected cells
T1 sequence (Q9NR96 26-1032): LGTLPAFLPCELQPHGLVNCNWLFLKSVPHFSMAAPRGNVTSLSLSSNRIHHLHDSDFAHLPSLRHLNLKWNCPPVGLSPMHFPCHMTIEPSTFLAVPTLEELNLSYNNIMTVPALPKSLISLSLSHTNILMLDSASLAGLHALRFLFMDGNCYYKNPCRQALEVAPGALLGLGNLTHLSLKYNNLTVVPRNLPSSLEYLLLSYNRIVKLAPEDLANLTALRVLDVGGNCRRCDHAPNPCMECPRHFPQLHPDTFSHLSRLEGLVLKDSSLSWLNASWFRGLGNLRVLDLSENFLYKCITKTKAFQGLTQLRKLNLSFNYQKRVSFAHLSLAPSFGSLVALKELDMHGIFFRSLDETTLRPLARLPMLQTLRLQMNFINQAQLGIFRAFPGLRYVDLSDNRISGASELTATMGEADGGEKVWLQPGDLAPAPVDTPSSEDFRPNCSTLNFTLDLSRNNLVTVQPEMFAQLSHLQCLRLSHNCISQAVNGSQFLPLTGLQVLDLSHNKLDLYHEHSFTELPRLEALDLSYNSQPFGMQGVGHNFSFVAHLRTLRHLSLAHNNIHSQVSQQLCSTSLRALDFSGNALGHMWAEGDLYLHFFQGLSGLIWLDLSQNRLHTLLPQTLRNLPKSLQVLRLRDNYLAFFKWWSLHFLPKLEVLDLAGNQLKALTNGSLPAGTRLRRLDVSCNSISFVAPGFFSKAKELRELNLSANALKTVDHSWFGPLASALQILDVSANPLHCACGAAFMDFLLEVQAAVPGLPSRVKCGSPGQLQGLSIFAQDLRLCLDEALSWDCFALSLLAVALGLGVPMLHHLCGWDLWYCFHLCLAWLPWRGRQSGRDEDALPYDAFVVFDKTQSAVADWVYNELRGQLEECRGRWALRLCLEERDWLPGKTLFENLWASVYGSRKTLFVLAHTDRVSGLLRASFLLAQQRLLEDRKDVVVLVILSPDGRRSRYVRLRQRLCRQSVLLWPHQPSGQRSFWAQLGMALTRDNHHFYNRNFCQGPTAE

BALB/c mouse splenocytes [2] = assay: Cytokine ELISA of mouse splenocyte culture supernatants; format: cell-based; conditions: BALB/c splenocyte supernatants at 6 hour (TNF-alpha) or 24 hours (IL-6, IL-10, IL-12)
Source text: Naïve BALB/c mouse splenocytes (from pools of 3-5 animals) were used for in vitro assays. Animals were anaesthetized with isoflurane and euthanized by cervical dislocation. Spleens were removed under aseptic conditions and placed in PBS+0.2% bovine serum albumin (Sigma Chemical Company). Spleens were then homogenized and splenocytes were re-suspended in RPMI 1640 (Life Technologies, Grand Island, N.Y.) tissue culture medium supplemented with 2% normal mouse serum (Cedarlane Laboratories, Ontario, Canada), penicillin-streptomycin solution (final concentration of 1000 U/ml and 1 mg/ml respectively; Sigma Chemical Company), and 5×10−5 M b-mercaptoethanol (Sigma Chemical Company).
In order to determine the efficacy of the modified ODN of the invention […], ODN with lipophilic T analogs were tested in isolated mouse splenocytes. BALB/c mouse splenocytes were isolated and incubated with modified B class (SEQ ID NO:13), unmodified B class (SEQ ID NO:37), and a non-CpG ODN (SEQ ID NO:26) (Table 5). Culture supernatants were collected at 6 hour (TNF-alpha) or 24 hours (IL-6, IL-10, IL-12) and cytokine concentration was measured by ELISA.

BALB/c mice [3] = assay: In vivo plasma cytokine production after SC injection (ELISA); set-up: species or system mouse
Protocol: as §1
To measure the effect of modified ODN in vivo, BALB/c mice (5 per group) were injected subcutaneously (SC) with 10, 50 or 100 μg of SEQ ID NO:13 or 100 μg of SEQ ID NO:37 in a total volume of 100 μl SC. Control group received 100 μl of PBS alone. Animals were bled by cardiac puncture at 1 hour post injection (TNF-alpha) or 3 hours post injection (IP-10). Plasma samples were assayed ELISA for TNF-alpha (FIG. 15a) and IP-10 (FIG. 15b).

BALB/c mouse splenocytes [4] = assay: B cell proliferation in CFSE-stained mouse splenocytes (FACS); format: cell-based; conditions: 0.001-10 μg/ml ODN, 72 hours, CD19 FACS
Protocol: Caboxy-florescein diacetate, succimidyl ester (CFSE) (Invitrogen, Eugene, Oreg., USA) stained BALB/c mouse splenocytes (4×10^5/well) were incubated with different concentrations of ODN in a humidified 5% CO2 incubator at 37° C. for […]. Cells were then stained with PE conjugated anti-CD19 antibody (BD Pharmingen, San Diego, Calif., USA) for CD19 and B-cell proliferation was determined by FACS followed by analysis by ModFit Software V3.0 (Verity Software House Inc., Topsham, Me., USA).
ODN were then tested their ability to induce B cell proliferation in splenocytes. CFSE-stained BALB/c mouse splenocytes (4×10^5/well) were incubated with 0.001, 0.01, 0.1, 0.3, 1, 3 or 10 μg/ml of the indicated ODN (FIG. 14). At 72 hours post-incubation, cells were stained for cell surface marker CD19 and B-cell proliferation was determined by FACS followed by analysis by ModFit Software. […] The increase was most pronounced even at lower ODN concentration.

Substance	percentage of B cells with reduced CFSE staining (PBMC)	plasma IFN-alpha induction (BALB/c mice [1])	TLR9 stimulation (NF-κB luciferase activity, relative stimulation index) (human TLR9)	cytokine concentration (TNF-alpha, IL-6, IL-10, IL-12) (BALB/c mouse splenocytes [2])	plasma TNF-alpha production (BALB/c mice [3]; 1 hour post injection)	plasma IP-10 production (BALB/c mice [3]; 3 hours post injection)	B-cell proliferation (BALB/c mouse splenocytes [4])
T*C*G*T*C*G*T*T*T*T*G*T*C*G*T*T*T*T*G*T*C*G*T*T [SEQ ID NO:55, reference compound]	highest percentage of B cells after division	did not induce much murine IFN-alpha					
T*G*JU*C-G*T*T*T*T*T*T*T*T*T*T*T*T*T*T*T (DNA dT*dG*d[5IU]*dCdG*dT*dT*dT*dT*dT*dT*dT*dT*dT*dT*dT*dT*dT*dT*dT) [SEQ ID NO:13]			greater stimulation of TLR9 activity over control; also recorded: more active in the assay than the parent ODN	dramatically increased levels of all cytokines tested	higher	higher	marked increase in B-cell proliferation
